The values that follow are results of earlier work, collected in patent US7645795B2, “Method for treating amyotrophic lateral sclerosis” (BodyBio, Inc, priority 2004, dated 2010).

In this data set the test system is ALS patients.

Molecules are shown by their SMILES.

Turning to `Nc1nc2ccc(OC(F)(F)F)cc2s1` [riluzole], the “Extension of lifespan of ALS patients” value is recorded as “approximately 3 months” and the Hepatic effect entry is given as “evokes hepatic stress upon elevation of liver enzymes”.
